Patent US6287848A, “Dosage modeling system” (Johns Hopkins University, priority 1999, dated 2001)
Read-outs that look alike come from different tables or passages of the source.

Assays:
[1] = tested on: human T-lymphoblastic cell line CEM, infected with HIV; test: Intracellular and extracellular pharmacokinetic profiles of ZDV and its metabolites in hollow-fiber bioreactor dosing system (Example 2); format: in vitro ADME
Description: The bioreactor includes a cartridge of polypropylene capillaries that is commercially available from Unisyn Technologies, Inc. (Hopkinton, Mass.). The cells in the bioreactor are a human T-lymphoblastic cell line CEM, infected with HIV. The volume of distribution (VD), which is total amount of fluid in the loop 201 and the central reservoir 230, is 50 ml. The fast and slow pumps are Ismatic Peristaltic Pumps commercially available from Cole-Parmer (Niles, Ill.). The dosing element is a programmable dosing pump commercially available from Medex, Inc. (Deluth, Ga.).
The fast pump is operated at a flow rate of 35 ml/min. The dilution pump 218 is operated at a flow rate of 0.5 ml/min.
The drug Zidovudine (ZDV) is infused at four different dosing regimens for a dosing period of 24 hours, i.e., 0.1 μg/ml, continuously at 0.37 μM; 100 μg every 8 hours; 150 μg every 12 hours; and 300 μg at 24 hours. The control is operated without dosing ZDV.
Samples are removed through sampling port 272. Extracellular concentrations are determined from the fluid, and intracellular concentrations are determined after harvesting and treating the cells to extract the contents.
Drug concentration time curves allow the determination of Cmax, Cmin and AUC.
Thus, the AUCs are similar for the intracellular ZDV-diphosphate and intracellular ZDV-triphosphate.

[2] = tested on: HIV reverse transcriptase; details: active metabolite; cited from earlier work

Compound | intracellular AUCs across four dosing regimens [1] | intracellular concentration on increasing the dose of ZDV [1] | intracellular concentration profiles across four dosing regimens ([1]; FIG. 11a-c, ZDV infused over 24 h: continuously at 0.37 μM, 100 μg every 8 hours, 150 μg every 12 hours, 300 μg at 24 hours) | intracellular concentration on increasing the dose of ZDV ([1]; increasing the dose of ZDV) | rate limiting step of intracellular ZDV phosphorylation ([1]; suggested by the data) | inhibits HIV reverse transcriptase, which results in the inhibition of HIV replication [2] | amount of ZDV-triphosphate resulting from all four dosing regimens [1]
Cc1cn([C@H]2C[C@H](N=[N+]=[N-])[C@@H](COP(=O)(O)OP(=O)(O)O)O2)c(=O)[nH]c1=O [ZDV-diphosphate] | similar | does not result in an increase |  |  |  |  | 
Cc1cn([C@H]2C[C@H](N=[N+]=[N-])[C@@H](COP(=O)(O)O)O2)c(=O)[nH]c1=O [ZDV-monophosphate] |  |  | different profiles | relative increase | rate limiting step is the conversion of ZDV-monophosphate to ZDV-iphosphate |  | 
Cc1cn([C@H]2C[C@H](N=[N+]=[N-])[C@@H](CO[P@](=O)(O)O[P@](=O)(O)OP(=O)(O)O)O2)c(=O)[nH]c1=O [ZDV-triphosphate] | similar | does not result in an increase |  |  |  | inhibits HIV reverse transcriptase | same amount
